Test results published in US20150164117A1, “ENCAPSULATION OF FRAGRANCE AND/OR FLAVORS IN SILK FIBROIN BIOMATERIALS” (Tufts University, priority 2012, published 2015).
Several values for one entry are separate records, joined by “and”; a condition that tells them apart may be missing. Equal entries are not always repeated.

Assays:
[1] = cited from earlier work
[2] = Size of fragrance-loaded silk microparticles from silk/fragrance emulsions; type: physicochemical; details: n = 3
Protocol: To determine the effectiveness of encapsulation of a silk based oil-water-oil system, fragrance oils targeted for encapsulation were added to the silk/polyvinyl alcohol (PVA) aqueous phase at ratios ranging from 1:2 up to 1:8 (v:v). The ratio of silk to fragrance oils was altered prior to sonication and addition of secondary oil phase. […] Formation of fragrance-loaded silk microparticles was more challenging at ˜1% silk concentrations for any of the fragrances tested.
The water phase was created by combining 5:1 (v:v) silk fibroin solution with 3% (w/v) PVA solution. The oil fragrance targeted for encapsulation was manually added to an aqueous phase. The stable primary O/W emulsion was sonicated (20% for 20 seconds) to disperse the oil, reduce the diameter of the oil particles and initiate β-sheet formation. The vegetable oil (sunflower oil) was added as the secondary oil phase at a 10:1 volumetric ratio with respect to the primary emulsion. The O/W/O emulsion was vortexed at high speed for 30 seconds and incubated overnight at room temperature. The microparticles were collected via centrifugation, and excess oil was removed by two successive ethanol rinses. The isolated particles were resuspended in deionized water and stored at room temperature.

[3] = TGA with stepwise isothermal segments, fragrance protection by PEO/silk coatings; type: physicochemical; details: limonene containing microparticles
Source text: It has been previously discussed that hydrated barriers can alter the rate of compound release from aqueous silk, hyaluronic acid, gelatin, and alginate constructs (Guziewicz et al., 2011; Elia et al., 2011; Omi et al., 1991; Sriamornsak et al., 2007; Chan et al., 2007; and Li et al., 2006). In combination with the hydrophobic nature of the fragrances, a protective barrier designed to maintain moisture can be desired. The coating scheme is illustrated in FIG. 27A. Each coating comprises a polyethylene oxide (PEO) layer surrounded by a silk fibroin film. Particles were coated with one, three or five coatings and a modified TGA was performed to assess fragrance retention. […] FIGS. 27B-27D depict scanning electron micrographs of these particles.
(§1) Thermogravimetric analysis (TGA) (TA Instruments Q500) was used to measure weight changes in the microparticles. For rapid estimates of microparticle composition the TGA was heated from 23° C. to 500° C. at a rate of ˜20° C./min. To distinguish surface fragrance from encapsulated fragrance, samples were run with a ˜250 minute incubation at 50° C. prior to continued heating. For analysis of fragrance protection the TGA was held isothermal for 30 minutes every 20° C. interval from 70° C. up to 210° C. For each segment weight loss was monitored and attributed to fragrance release from the microparticles.

[4] = Interfacial tension between silk solution and limonene (pendant drop); type: physicochemical
Protocol: To elucidate the interaction of silk and the fragrance oils the interfacial tension was measured. Interfacial tension between the two liquids dictates emulsion stability and ultimately microparticle size and distribution (Terjung et al., 2012). Various silk concentrations were assessed along with three silk molecular weight ranges: low, medium and high based on degumming times of ˜60, ˜30 and ˜10 minutes respectively. […] Interfacial tension drops when the molecular weight of the silk protein is decreased. This is in agreement with other studies that show a dependence of surface tension on molecular weight and molecular chain branching (Dettre et al., 1966 and Legrand et al., 1969). […] The highest interfacial tension was 8.16+/−0.57 mN/m for the […] molecular weight silk at a concentration of about 2%. […] Hung et al. discussed that an increase in the concentration of short chain molecules can correspond to a decrease in interfacial tension in an aqueous system (Ly et al. 2004). This is a behavior indicative of emulsifiers, which traditionally serve to stabilize mixtures and generally show better stability with increase in concentration (Djakovic et al., 1987).
Interfacial tension measurements were made using a Ramé-Hart Goniometer (Model 200) running DROPimage Standard analysis software. A silk solution drop of known volume was suspended on the tip of a needle which was submerged in the fragrant oil creating a pendent drop. The DROPimage software used the pendant drop image as well as known density values to calculate interfacial tension at the liquid-liquid interface.

[5] = type: physicochemical
Protocol: To determine fragrance content, thermogravimetric analysis (TGA) was performed on fragrance-loaded sill microparticles. Samples were allowed to air dry for 24 hours prior to analysis. FIGS. 18D-18F depict the results of the TGA for encapsulation of three fragrances, while FIGS. 18A-18C show the individual emulsion components. A small increase in temperature causes the ethanol to volatilize rapidly, while the silk and vegetable oil only begin to degrade at temperatures of 220° C. and 300° C. respectively. The fragrances used are highly volatile and were expected to vaporize well before the silk and oil components. As shown in FIG. 18D-18F, it is difficult to distinguish the fragrance component from the ethanol, they are both released from the microparticles in the same temperature range. To estimate the fragrance content, the change in rate of weight loss during heating from 23° C. to 100° C. was taken as the transition between primarily ethanol evaporation prior to change in rate and fragrances loss subsequently.
To address concerns with release between ethanol and the encapsulated fragrance, a 250 minute incubation at 50° C. was employed during a second set of TGA runs. This incubation was added to ensure that any free surface fragrance and ethanol would vaporize prior to further temperature ramping. After incubation the silk particles contain fragrance only if it was entrapped within the silk.
as §1

[6] = Limonene release in water from limonene/silk/PVA microparticles (TGA after soaking); type: physicochemical
Protocol: FIGS. 22A-22B are data graphs showing retention/release of fragrance from the fragrance-encapsulated silk microparticles under a specified condition. The microparticles were then diluted in water and passed through 120 μm filter. The isolated microparticles were then incubated in water to determine fragrance release over time. FIG. 22A is a data graph of TGA (performed with ˜250 min 50° C. incubation, followed by ramping to 400° C. at 5° C./min) showing weight loss of fragrance-encapsulated silk microparticles over a period of time when subjected to various temperatures. […] These silk microparticles show retention across 14 days without any additional coatings. FIG. 22B is a bar graph showing percents of encapsulated limonene release in water from O/W/O PVA silk microparticles without coatings. Using the “no release” as the reference point for fragrance content, there was about 2-3% difference in mass for fragrance-encapsulated silk microparticles soaked in water. Mass loss corresponds to fragrance loss during soaking in an aqueous environment, with an increase of fragrance release after longer exposure to the aqueous environment.

[7] = Dissolution of untreated loaded silk films and release of load in aqueous medium; type: physicochemical
Protocol: Rapid dissolution of films loaded with a dye and release of the dye from the films occur when the films are immersed in ˜37° C. buffer (FIG. 10). Dissolvable silk films loaded with an odor-releasing substance and/or flavoring substance (e.g., ˜0.5, 0.25 or 0.125 mg of adenosine per 0.2 mm^2 film) released the majority of the drug load (approx. 80%) within 15 minutes of exposure to 37° C. phosphate buffered saline (PBS) (Data not shown).

[8] = silk concentration ~3%, fragrance:silk ~1:2
[9] = silk concentration ~5%, fragrance:silk ~1:2

## CCCC(C)C(=O)OCC (centres unmarked) [Applinate]
[1]
  Log P: 2.76
[2]; silk concentration 3%, fragrance:silk ~1:4
  Microparticle size: 9.53 ± 2.47 μm
[2]; silk concentration 3%, fragrance:silk ~1:8
  Microparticle size: 9.22 ± 2.79 μm
[2]; silk concentration 5%, fragrance:silk ~1:4
  Microparticle size: 9.64 ± 3.11 μm
[2]; silk concentration 5%, fragrance:silk ~1:8
  Microparticle size: 9.61 ± 2.40 μm
[2]; [8]
  Microparticle size: 8.49 ± 2.53 μm
[2]; silk concentration ~3%, fragrance:silk ~1:2, listed as applinate
  Microparticle size: 8.49+/−2.53 μm and 8.49 ± 2.53 μm
[2]; [9]
  Microparticle size: 8.11 ± 1.96 μm
[2]; silk concentration ~5%, fragrance:silk ~1:2, listed as applinate
  Microparticle size: 8.11+/−1.76 μm and 8.11 ± 1.96 μm

## C/C=C/C(=O)C1C(C)C=CCC1(C)C (centres unmarked) [Delta-Damascone]
[1]
  Log P: 3.91
[2]; [8]
  Microparticle size: 7.60 ± 2.71 μm
[2]; [9]
  Microparticle size: 7.84 ± 1.49 μm

## C=CC(C)CCCC(C)(C)O (centres unmarked) [Dihydromyrcenol]
[1]
  Log P: 3.25
[2]; [9]
  Microparticle size: 7.71 ± 1.82 μm

## C=C(C)C1CC=C(C)CC1 (centres unmarked) [Limonene]
[3]; 1 PEO/silk coating, 70-210° C. segments
  Weight Loss (%), Total Loss: 8.2%
[3]; 1 PEO/silk coating, isotherm segment 70° C.
  Weight Loss (%): 0.179%
[3]; 1 PEO/silk coating, isotherm segment 90° C.
  Weight Loss (%): 1.024%
[3]; 1 PEO/silk coating, isotherm segment 110° C.
  Weight Loss (%): 0.154%
[3]; 1 PEO/silk coating, isotherm segment 130° C.
  Weight Loss (%): 0.342%
[3]; 1 PEO/silk coating, isotherm segment 150° C.
  Weight Loss (%): 0.323%
[3]; 1 PEO/silk coating, isotherm segment 170° C.
  Weight Loss (%): 0.367%
[3]; 1 PEO/silk coating, isotherm segment 190° C.
  Weight Loss (%): 2.465%
[3]; 1 PEO/silk coating, isotherm segment 210° C.
  Weight Loss (%): 3.3201%
[3]; 3 PEO/silk coatings, 70-210° C. segments
  Weight Loss (%), Total Loss: 1.2%
[3]; 3 PEO/silk coatings, isotherm segment 70° C.
  Weight Loss (%): 0.035%
[3]; 3 PEO/silk coatings, isotherm segment 90° C.
  Weight Loss (%): −0.019%
[3]; 3 PEO/silk coatings, isotherm segment 110° C.
  Weight Loss (%): 0.091%
[3]; 3 PEO/silk coatings, isotherm segment 130° C.
  Weight Loss (%): −0.102%
[3]; 3 PEO/silk coatings, isotherm segment 150° C.
  Weight Loss (%): 0.056%
[3]; 3 PEO/silk coatings, isotherm segment 170° C.
  Weight Loss (%): 0.288%
[3]; 3 PEO/silk coatings, isotherm segment 190° C.
  Weight Loss (%): 0.328%
[3]; 3 PEO/silk coatings, isotherm segment 210° C.
  Weight Loss (%): 0.478%
[3]; 5 PEO/silk coatings, 70-210° C. segments
  Weight Loss (%), Total Loss (fragrance retention): 16.8%
[3]; 5 PEO/silk coatings, isotherm segment 70° C.
  Weight Loss (%): 1.535%
[3]; 5 PEO/silk coatings, isotherm segment 90° C.
  Weight Loss (%): 3.531%
[3]; 5 PEO/silk coatings, isotherm segment 110° C.
  Weight Loss (%): 3.579%
[3]; 5 PEO/silk coatings, isotherm segment 130° C.
  Weight Loss (%): 2.391%
[3]; 5 PEO/silk coatings, isotherm segment 150° C.
  Weight Loss (%): 1.549%
[3]; 5 PEO/silk coatings, isotherm segment 170° C.
  Weight Loss (%): 1.314%
[3]; 5 PEO/silk coatings, isotherm segment 190° C.
  Weight Loss (%): 1.278%
[3]; 5 PEO/silk coatings, isotherm segment 210° C.
  Weight Loss (%): 1.615%
[4]; between silk and limonene, lowest molecular weight and highest silk concentrations
  Interfacial tension: 4.59+/−0.32 mN/m
[4]; between silk and limonene, lowest molecular weight silk at about 2% (highest value found)
  Interfacial tension: 8.16+/−0.57 mN/m
[4]; limonene / 6% silk at 3.1 uM NaCl
  Interfacial tension: 1.82+/−0.39 mN/m
[4]; limonene / unaltered 6% silk (30 minute degummed), n=3
  Interfacial tension: 4.78+/−0.28 mN/m
[5]; O/W/O microparticles, TGA with 250 minute incubation at 50° C.
  Loss of limonene during incubation period: majority of the limonene is lost
[5]; preformed PVA/silk microparticles soaked about 1 or about 24 hours in limonene oil, TGA
  Limonene fraction of microparticles: 85-90%
[2]; [8]
  Microparticle size: 9.57 ± 2.70 μm
[2]; silk concentration ~3%, fragrance:silk ~1:2, listed as limonene
  Microparticle size: 9.57+/−2.70 μm
[2]; [9]
  Microparticle size: 12.40 ± 4.76 μm
[2]; silk concentration ~5%, fragrance:silk ~1:2, listed as limonene
  Microparticle size: 12.40+/−4.96 μm
[6]; uncoated limonene/silk/PVA O/W/O microparticles soaked in water, TGA
  Difference in mass versus no release (fragrance loss on soaking in water): 2-3%
[6]; uncoated limonene/silk/PVA microparticles incubated in water
  Retention in water without additional coatings: 14 days

## Nc1ncnc2c1ncn2[C@@H]1O[C@H](CO)[C@@H](O)[C@H]1O [adenosine]
[7]; dissolvable silk films, ~0.5, 0.25 or 0.125 mg per 0.2 mm^2 film, within 15 minutes in 37° C. PBS, data not shown
  Drug load released: approx. 80%

## O=C1/C(=C2\Nc3ccc(S(=O)(=O)[O-])cc3C2=O)Nc2ccc(S(=O)(=O)[O-])cc21.[Na+].[Na+] [indigo carmine]
[7]; untreated dye-loaded silk film immersed in ~37° C. water
  Time to full dissolution: about 30 minutes

## vegetable oil
[5]
  Temperature at which degradation begins: 300 °C
